Several values for one entry are separate records, joined by “and”; a condition that tells them apart may be missing. Equal values may be shown once.
Columns and labels:
[1] = Stability of ciprofol QC samples in rat plasma; format: physicochemical; conditions: rat plasma; for ciprofol found after storage, Autosampler / ciprofol found after storage, Room Temperature / ciprofol found after storage, Freeze–Thaw / ciprofol found after storage, Long-Term Storage: n = 5; for Stability: calculated concentration: single replicates
Protocol: 5 μL of IS solution (2.5 μg·mL^-1 D6-ciprofol) was added to 100 μL of plasma and mixed. Then, 300 μL of acetonitrile was added. The mixture was vortexed for 2 min and centrifuged for 10 min, and the supernatant was transferred to an autosampler vial for HPLC-MS/MS detection.
To investigate the stability of ciprofol under a variety of conditions, three groups of liver microsome QC sample solutions were prepared, and one group was immediately processed and analysed as described in Section 2.4.2. Another group was stored at room temperature for 8 hours before treatment and assessment. The other group was treated and placed in the autosampler (4°C) for 24 h and subsequently analysed. In addition, simulated plasma QC samples were prepared in five groups: one group was processed and measured immediately as described in Section 2.4.3, and another group was placed in the autosampler for 24 h after treatment. The other three groups were placed at room temperature for 8 h, stored at -40°C for 30 d, frozen and thawed three times, respectively, and then processed and detected as described in Section 2.4.3. All the above samples were tested in parallel in five batches.

[2] = clinical trials; cited from earlier work
[3] = Autosampler for 24 h, QC level H
[4] = Autosampler for 24 h, QC level L
[5] = Autosampler for 24 h, QC level M
[6] = Feeeze - Thaw for three times, QC level H
[7] = Feeeze - Thaw for three times, QC level L
[8] = Feeeze - Thaw for three times, QC level M
[9] = Room - Temperature for 8 h, QC level H
[10] = Room - Temperature for 8 h, QC level L
[11] = Room - Temperature for 8 h, QC level M

SMILES: CC(C)c1cccc([C@H](C)C2CC2)c1O [ciprofol]
- ciprofol found after storage, Autosampler ([1]; QC 250 ng·mL^-1, autosampler for 24 h after treatment): 250.78 ± 12.31 ng/mL
- ciprofol found after storage, Room Temperature ([1]; QC 250 ng·mL^-1, room temperature for 8 h): 227.31 ± 5.60 ng/mL
- ciprofol found after storage, Freeze–Thaw ([1]; QC 250 ng·mL^-1, three freeze–thaw cycles): 245.21 ± 3.43 ng/mL
- ciprofol found after storage, Long-Term Storage ([1]; QC 250 ng·mL^-1, −40°C for 30 days): 242.73 ± 9.08 ng/mL
- ciprofol found after storage, Autosampler ([1]; QC 1600 ng·mL^-1, autosampler for 24 h after treatment): 1576.27 ± 41.67 ng/mL
- ciprofol found after storage, Room Temperature ([1]; QC 1600 ng·mL^-1, room temperature for 8 h): 1464.24 ± 98.79 ng/mL
- ciprofol found after storage, Freeze–Thaw ([1]; QC 1600 ng·mL^-1, three freeze–thaw cycles): 1604.92 ± 96.88 ng/mL
- ciprofol found after storage, Long-Term Storage ([1]; QC 1600 ng·mL^-1, −40°C for 30 days): 1597.51 ± 83.93 ng/mL
- Stability: mean calculated concentration ([1]; -40℃ for 30 d, QC level L): 31.38 ng/mL
- Stability: calculated concentration ([1]; -40℃ for 30 d, QC level L): 34.12 ng/mL and 32.66 ng/mL and 29.27 ng/mL and 33.13 ng/mL and 27.74 ng/mL
- Stability: mean calculated concentration ([1]; -40℃ for 30 d, QC level M): 242.73 ng/mL
- Stability: calculated concentration ([1]; -40℃ for 30 d, QC level M): 234.27 ng/mL and 256.93 ng/mL and 236.05 ng/mL and 240.78 ng/mL
- Stability: mean calculated concentration [1, 3]: 1576.27 ng/mL
- Stability: calculated concentration [1, 3]: 1522.23 ng/mL and 1628.44 ng/mL and 1549.96 ng/mL and 1580.01 ng/mL and 1600.71 ng/mL
- Stability: mean calculated concentration [1, 4]: 31.48 ng/mL
- Stability: calculated concentration [1, 4]: 32.65 ng/mL and 31.94 ng/mL and 29.92 ng/mL and 33.65 ng/mL and 29.23 ng/mL
- Stability: mean calculated concentration [1, 5]: 250.78 ng/mL
- Stability: calculated concentration [1, 5]: 249.99 ng/mL and 245.49 ng/mL and 259.61 ng/mL and 233.66 ng/mL and 265.15 ng/mL
- Stability: mean calculated concentration [1, 6]: 1604.92 ng/mL
- Stability: calculated concentration [1, 6]: 1500.04 ng/mL and 1659.28 ng/mL and 1498.65 ng/mL and 1682.66 ng/mL and 1683.96 ng/mL
- Stability: mean calculated concentration [1, 7]: 32.14 ng/mL
- Stability: calculated concentration [1, 7]: 33.17 ng/mL and 29.49 ng/mL and 30.69 ng/mL and 33.26 ng/mL and 34.09 ng/mL
- Stability: mean calculated concentration [1, 8]: 245.21 ng/mL
- Stability: calculated concentration [1, 8]: 248.65 ng/mL and 241.72 ng/mL and 249.13 ng/mL and 243.02 ng/mL and 243.50 ng/mL
- Stability: mean calculated concentration [1, 9]: 1464.24 ng/mL
- Stability: calculated concentration [1, 9]: 1500.17 ng/mL and 1462.05 ng/mL and 1317.85 ng/mL and 1591.16 ng/mL and 1449.95 ng/mL
- Stability: mean calculated concentration [1, 10]: 29.27 ng/mL
- Stability: calculated concentration [1, 10]: 29.52 ng/mL and 32.22 ng/mL and 27.05 ng/mL and 30.35 ng/mL and 27.24 ng/mL
- Stability: mean calculated concentration [1, 11]: 227.31 ng/mL
- Stability: calculated concentration [1, 11]: 220.38 ng/mL and 226.72 ng/mL and 228.84 ng/mL and 235.64 ng/mL and 224.99 ng/mL
- incidence of pain on injection relative to that caused by propofol [2]: 1/10
